Test results as given in PubChem BioAssay (NCI).
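Exposure lasted 48 hours, with cells grown in 96-well plates and compounds tested at five concentrations. TGI is the concentration that stops growth completely.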

These molecules were tested on MDA-N (assay: NCI anticancer screen, dose series, 48 h).

| Compound | TGI [µM] |
| --- | --- |
| Cc1ccc(C2=Nc3c(c(C)nn3-c3ccccc3)N=C(C(=O)O)C2)cc1 | > 10 |
| CC1CC(C#N)=C2NCCCCN2C1=O (configuration not stated) | > 100 |
| Cc1ccc(C(=O)Nc2ccc(CP(=O)(O)O)cc2)cc1NC(=O)c1cccc(NC(=O)Nc2cccc(C(=O)Nc3cc(C(=O)Nc4ccc(CP(=O)(O)O)cc4)ccc3C)c2)c1 | > 100 |
| CN(O)C(=O)Cc1ccc(OCc2cccc(Cl)c2)cc1 | > 100 |
| CC(C)c1c(P(=O)(c2ccccc2)c2ccccc2)n(C)c2ccccc12 | > 100 |
| CCN(CCCN(CC)C(=O)N[C@@H](Cc1ccccc1)C(=O)NC)C(=O)N[C@@H](Cc1ccccc1)C(=O)NC | > 100 |
| CCOP(=O)(OCC)/C(F)=C/c1ccccc1 | > 100 |
| CC(C)/C(Cl)=N\OC(=O)NNc1ccccc1 | > 100 |
| O=C(/C=C/c1cccs1)c1ccc(Cl)cc1 | > 100 |
| O=C(O)c1ccc(NS(=O)(=O)Cc2ccccc2)cc1 | > 100 |
| O=C1/C(=C/c2ccc(F)cc2)CNC/C1=C\c1ccc(F)cc1 | 5.67 |
| O=C1OC[C@@H]2Cc3c([nH]c4ccccc34)[C@@H](c3ccc(O)cc3)N12 | > 100 |
| CCN(CC)CCCn1c(=O)c2cccnc2n2c3c(=O)n(C)c(=O)n(C)c3nc12 | > 100 |
| CN(C)c1ccc(/C(Br)=C2\OC(=O)c3ccccc32)cc1 | > 100 |
| CC1=C2c3ccccc3N(C(=O)/C=C/C(=O)O)[C@H]2[C@H]2C(=O)OC(=O)[C@H]2C1 | > 10 |
| CC1=CC(=O)N(n2c(C)n[nH]c2=O)C1=O | > 100 |

| Compound | TGI [µM] |
| --- | --- |
| CN1CCN(C(=S)N(C)C(=O)c2ccc(Cl)cc2)CC1 | > 100 |
| COc1ccc2c(c1)C(=O)c1ccccc1C2 | > 100 |
| CCOC(=O)C1CC(O)C(=O)N1C (configuration not stated) | > 100 |
| CC(=O)CC(=O)c1cc2c(=O)oc(C)cc2oc1=O | > 37.5 |
| CCn1c(=O)c2c3cc(O)ccc3oc2c2ccc(O)cc21 | > 100 |
| N#Cc1c2c(c(Nc3ccc(F)cc3)n3c1nc1ccccc13)CCC2 | 9.75 |
| CCOC(=O)c1c(N)n(-c2ccccc2)c(=S)n(-c2ccccc2)c1=O | > 100 |
| COc1cccc(C2c3cc4c(cc3OC(N3CCCC3)C2C)OCO4)c1OC (configuration not stated) | 19.6 |
| COc1cccc(-c2nc(-c3cnccn3)n(Cc3ccccc3)n2)c1 | > 100 |
| COc1cc([C@@H]2c3cc4c(cc3C[C@H]3COC(=O)[C@@H]32)OCO4)cc(OC)c1OC | 0.00582 |
| C[C@]12CC/C(=N\O)C=C1CC[C@@H]1[C@@H]2CC[C@]2(C)C(=N/O)/C(=C/c3cccnc3)C[C@@H]12 | 49.3 |
| C[C@@H]1C[C@H](O)[C@]2(O)O[C@@H]3C[C@@]4(C=O)[C@@H](CC=C5[C@@H]4CC[C@]4(C)[C@@H](C6=CC(=O)OC6)CC[C@]54O)C[C@H]3O[C@@H]2O1 | 0.195 |
| CC(C)(CO)N1C(=O)c2ccccc2C1(O)c1ccc(Cl)cc1 (configuration not stated) | > 100 |
| O=c1nc2c(c(-c3cccc(Cl)c3)[nH]1)COC/C2=C\c1cccc(Cl)c1 | > 100 |
| N#Cc1c(OCCF)c2ccccc2n2c1nc1ccccc12 | > 100 |
| Cc1cccc(N(CCC#N)S(=O)(=O)c2ccccc2)c1 | > 100 |

What follows are molecules tested on HS 578T breast (assay: NCI anticancer screen, dose series, 48 h).

| Compound | TGI [µM] |
| --- | --- |
| COc1ccc(NC2Oc3cc4c(cc3C(c3cc(OC)c(OC)c(OC)c3)C2C)OCO4)cc1 (configuration not stated) | > 100 |
| Cc1ccc(C2=Nc3c(c(C)nn3-c3ccccc3)N=C(C(=O)O)C2)cc1 | > 10 |
| CC1CC(C#N)=C2NCCCCN2C1=O (configuration not stated) | > 100 |
| Cc1ccc(C(=O)Nc2ccc(CP(=O)(O)O)cc2)cc1NC(=O)c1cccc(NC(=O)Nc2cccc(C(=O)Nc3cc(C(=O)Nc4ccc(CP(=O)(O)O)cc4)ccc3C)c2)c1 | > 100 |
| CN(O)C(=O)Cc1ccc(OCc2cccc(Cl)c2)cc1 | > 100 |
| CC(C)c1c(P(=O)(c2ccccc2)c2ccccc2)n(C)c2ccccc12 | > 100 |
| CCN(CCCN(CC)C(=O)N[C@@H](Cc1ccccc1)C(=O)NC)C(=O)N[C@@H](Cc1ccccc1)C(=O)NC | > 100 |
| CCOP(=O)(OCC)/C(F)=C/c1ccccc1 | > 100 |
| CC(C)/C(Cl)=N\OC(=O)NNc1ccccc1 | > 100 |
| O=C(/C=C/c1cccs1)c1ccc(Cl)cc1 | > 100 |
| O=C(O)c1ccc(NS(=O)(=O)Cc2ccccc2)cc1 | > 100 |
| O=C1/C(=C/c2ccc(F)cc2)CNC/C1=C\c1ccc(F)cc1 | > 42.1 |
| O=C1OC[C@@H]2Cc3c([nH]c4ccccc34)[C@@H](c3ccc(O)cc3)N12 | > 100 |
| Cc1oc2nc(N(C)C)n3nnnc3c2c1C | > 100 |
| CCN(CC)CCCn1c(=O)c2cccnc2n2c3c(=O)n(C)c(=O)n(C)c3nc12 | > 100 |
| CN(C)c1ccc(/C(Br)=C2\OC(=O)c3ccccc32)cc1 | > 100 |
| CC1=C2c3ccccc3N(C(=O)/C=C/C(=O)O)[C@H]2[C@H]2C(=O)OC(=O)[C@H]2C1 | > 10 |
| CC1=CC(=O)N(n2c(C)n[nH]c2=O)C1=O | > 100 |
| CN1CCN(C(=S)N(C)C(=O)c2ccc(Cl)cc2)CC1 | > 100 |
| COc1ccc2c(c1)C(=O)c1ccccc1C2 | > 100 |
